Experimental data as given in patent publication US4200629A, “Anti-fungal substance and preparing method thereof” (priority 1977, dated 1980).
Where a name gives a salt, the structure may show the parent alone.

Tests used:
Candida albicans = test: inhibitory effect, antifungal test disk (Test Example 2); type: cell-based; settings: 8 mm disk, 0.005 g active ingredient
Source text: (§1) Each test fungal liquid was mixed with a Sabouraud's agar medium containing 0.1% of Tween 80 to form a multilayered fungal agar film, which was then solidified.

[1] = system: Trichophyton mentagrophytes; test: as above; type: cell-based; settings: 8 mm disk, 0.005 g active ingredient
Source text: as §1

Cryptococcus neoformans = test: as above; type: cell-based; settings: 8 mm disk, 0.005 g active ingredient
Source text: as §1

[2] = solubility in phosphate buffer solution
Aspergillus fumigatus = test: inhibitory effect, antifungal test disk (Test Example 2); type: cell-based; settings: 8 mm disk, 0.005 g active ingredient
Source text: as §1

[3] = system: medical fungi (Aspergillus, Candida, Trichophyton); test: growth inhibition of fungi (general statements); type: cell-based
Protocol: Each of the components is separated and tested with respect to the activity of growth inhibition of Aspergillus fumigatus, Candida albicans and Trichophyton mentagrophytes, respectively, according to the disk method.
Using 0.01 ml. of the resulting solution, the growth inhibitory effect of each powder against fungi was tested according to the disk method.

[4] = acute toxicity, LD50 oral; settings: mouse, in vivo, comparison with NT-72 orally in mice, source not stated

Structure (SMILES)	inhibitory circle diameter (Candida albicans)	inhibitory circle diameter (Trace) (Candida albicans)	inhibitory circle diameter [1]	inhibitory circle diameter (Trace) (Cryptococcus neoformans; trace)	solubility in the phosphate buffer solution [2]	inhibitory circle diameter (Aspergillus fumigatus)	inhibitory circle diameter (Trace) (Aspergillus fumigatus; trace)	activity of butanol extract after sodium borohydride reduction [3]	LD50 [4]	inhibitory circle diameter (Cryptococcus neoformans)
C[C@@H]1[C@H](O)[C@@H](C)/C=C/C=C/C=C/C=C/C=C/C=C/C=C/[C@H](O[C@@H]2O[C@H](C)[C@@H](O)[C@H](N)[C@@H]2O)C[C@@H]2O[C@](O)(C[C@@H](O)C[C@@H](O)[C@H](O)CC[C@@H](O)C[C@@H](O)CC(=O)O[C@H]1C)C[C@H](O)[C@H]2C(=O)O [Amphotericin B]	11 mm	14 mm	8.5 mm	–	–	–	–	–	–	–
Clc1ccccc1C(c1ccccc1)(c1ccccc1)n1ccnc1 [Byb 5097]	17 mm	22 mm	24 mm	18 mm	not sufficiently soluble	12.5 mm	18 mm	–	–	–
COc1ccc2cc3[n+](cc2c1OC)CCc1cc2c(cc1-3)OCO2 [berberine hydrochloride]	–	–	–	–	–	–	–	does not show the activity	60 to 70 mg/kg	–
C[C@@H]1[C@H](O)[C@@H](C)/C=C/C=C/CC/C=C/C=C/C=C/C=C/C(O[C@H]2O[C@H](C)[C@@H](O)[C@H](N)[C@@H]2O)CC2O[C@](O)(CC(O)C(O)CCC(O)CC(O)CC(O)CC(=O)O[C@H]1C)CC(O)C2C(=O)O (some centres unmarked) [Nystatin]	21 mm	–	12.5 mm	–	not sufficiently soluble	12 mm	–	–	–	11 mm
